The values below come from US5869448A, “Cyclic CS-1 peptidomimetics, compositions and methods of using same” (Cytel Corporation, priority 1995, dated 1999).

Series [1] in a line: Retention of potency in PBS containing 10 percent mouse or human serum. The format is in vitro ADME. The note with it: PBS at 7.2-7.4 with 10 percent mouse or human serum.
For series [2] the following is noted: in vivo; cited from earlier work.
Another series deals with T1, VLA-4/CS-1 (Homo sapiens, UniProt P05556+P13612).
T1 construct: inflammatory cells that contain the VLA-4 receptor [Jurkat cells; host or cells: Jurkat (human T lymphoblastic line)
The experiment in a line: In vitro inhibition of binding of 51Cr-labeled Jurkat cells to solid phase-bound CS-1 peptide. The format is cell-based. The settings on record: for CS-1 binding inhibition potencies relative to each other: XLDFp = 1; for inhibition potency relative to the Standard 10-mer of SEQ ID NO:6: times more potent than standard 10-mer. The procedure: Binding inhibition is measured here as a concentration of peptide that inhibits one-half the binding between a standard number of Jurkat cells and a standard amount of CS-1 peptide bound to the surface of a microtiter plate well. Those concentrations are conveniently expressed as IC50 values, smaller numbers indicating a lower concentration required to inhibit 50 percent binding and therefore greater potency. Further specifics of this assay are provided hereinafter.
Jurkat cells (ATCC TIB 152), a human T lymphoblastic line, labeled with ^51 chromium were used to assay in vitro binding inhibition provided by various peptides discussed herein.
The plates were prepared as follows: The 25-mer CS-1 peptide (SEQ ID NO:5) dissolved at 0.5-1 μg/ml in a buffer of 0.1M NaHCO3 at pH 9.5 that also contained 10 μg/ml of bovine serum albumin (BSA) or a conjugate of the CS-1 peptide linked to ovalbumin (CS-1-OVA) dissolved at 1-2.5 μg/ml in the same buffer was used as the substrate. Each well of the microtiter plates was coated with 50 μl of substrate or buffer alone for controls. The wells were permitted to dry out completely and were then rinsed twice with PBS at pH 7.4. Non-specific binding sites of each well were then blocked using 200 μl per well of RPMI/1 percent BSA for two hours at room temperature. Both solid phase-affixed substrates provided similar results.
Jurkat cells (3-5×10^6 cells) were placed into a 15 ml FALCON™ round-bottom tube with a cap. The tube was centrifuged, and the extra medium was then removed.
Two hundred microliters of a ^51 Cr labeling solution were added to the centrifuged cells and maintained in contact with the cells for 90-120 minutes in a warm room. This procedure typically provides about 50,000-100,000 cpm/well with about 80-100 percent cell viability. Longer contact times provide a greater amount of labeling but lower cell viability.
The labeled cells were washed with (i) complete medium, (ii) 1 mM EDTA/PBS and then (iii) RPM1/1 percent BSA free of serum components. The cells were centrifuged after each washing. The cells were finally resuspended in serum-free RPMI/1 percent BSA at a concentration of 1×10^6 viable cells/ml, which provides a concentration that is diluted by one-half in the assay.
Cyclic inhibitor peptides were prepared as stock solutions at 20 mg/ml in DMSO in 1.5 ml cryogenic screwcap vials, and were stored at -70° C. Using FLOW™ round-bottom or V-bottom microtiter plates, the inhibitor peptides were prepared at twice the assay concentration in RPMI/1 percent BSA at 60 μl/well.
Four initial dilutions were typically used.
The ^51 Cr-labeled cells (1×10^6 cells at 60 μl/well) were then admixed with the diluted cyclic peptide solutions. The admixtures were maintained at room temperature (about 22° C.) for 30 minutes.
One hundred microliters of each inhibitor peptide/cell admixture were transferred to the substrate-coated wells. This was done in triplicate for each dilution. The resulting plates were incubated for 30 minutes at 37° C. and then washed gently three times with RPMI/1 percent BSA at 200 μl/well. Binding was observed microscopically, particularly after the second wash.
The bound cells were then lysed by the addition of a 0.5 percent solution of sodium dodecylsulfate in water at 100 μl/well. The resulting solutions were then processed for counting and calculation of IC50 values following usual procedures. Appropriate positive and negative controls were used with each plate so that the results of separate assays could be normalized and compared.
The potency data of Table 1 and Table 2 are so normalized. The absolute IC50 value for the peptide of SEQ ID NO:7 is 0.3 μM.

For a further series, the target named is T2, VLA-4/sVCAM-1 (Homo sapiens, UniProt P05556+P13612).
T2 construct: host or cells: Jurkat cells (VLA-4). sVCAM-1 was made in house in transfected human 293 cells (ATCC CRL 1573) and purified from supernatant
The series can be described thus: In vitro inhibition of binding of Jurkat cells to solid phase-bound sVCAM-1. The format is cell-based. The procedure: Assays conducted using sVCAM-1 as solid phase-bound antigen were carried out substantially identically to those using CS-1. The sVCAM-1 polypeptide used had the same amino acid residue sequence as the materials described in Lobb et al., Biochem. Biophys. Res. Commun., 178:1498-1504 (1991) and Cybulsky et al., Proc. Natl. Acad. Sci., USA, 88:7859-7863 (1991). Human embryonal kidney line 293 (ATCC CRL 1573) cells were co-transfected with a plasmid (pCDNAI;invitrogen) containing the sVCAM-1 DNA sequence and plasmid pSV2-neo [Southern et al., J. Mol. Appl. Gen., 1:327341 (1992)]. Cells were selected in DMEM, 10 percent fetal bovine serum and 600 μg/ml Geneticin. sVCAM-1 was purified from supernatants using a column containing monoclonal antibody P3H12 (anti-human VCAM-1) coupled to Sepharose 4B. The sVCAM-1 was eluted using 0.1M glycine at pH 2.5 following 50 column washes with PBS, pH 7.2. The eluate was immediately neutralized and dialyzed against PBS for use.

The mark [3] stands for this setting: Table 2, normalized, relative to standard peptide of SEQ ID NO:6.
Where [4] appears, read: Table 1, normalized IC50, standard peptide of SEQ ID NO:6 = 1.

“And” between values parts separate entries of the source, which are not always exact repeats. Identical values can stand only once. Positions of bridges follow the written chain, without caps; N, C: chain ends. Non-standard residues stand in square brackets, D forms with d. Residues, ends and D or L forms follow the SMILES beside them. No end group written: not given here. *: point of attachment. Pen = CC(C)(S)[C@H](N)C(=O)O; PhAc = O=C(Cc1ccccc1)* A value given as a limit tells only on which side of the number the result lay.

T1 sequence (P13612 34-1032): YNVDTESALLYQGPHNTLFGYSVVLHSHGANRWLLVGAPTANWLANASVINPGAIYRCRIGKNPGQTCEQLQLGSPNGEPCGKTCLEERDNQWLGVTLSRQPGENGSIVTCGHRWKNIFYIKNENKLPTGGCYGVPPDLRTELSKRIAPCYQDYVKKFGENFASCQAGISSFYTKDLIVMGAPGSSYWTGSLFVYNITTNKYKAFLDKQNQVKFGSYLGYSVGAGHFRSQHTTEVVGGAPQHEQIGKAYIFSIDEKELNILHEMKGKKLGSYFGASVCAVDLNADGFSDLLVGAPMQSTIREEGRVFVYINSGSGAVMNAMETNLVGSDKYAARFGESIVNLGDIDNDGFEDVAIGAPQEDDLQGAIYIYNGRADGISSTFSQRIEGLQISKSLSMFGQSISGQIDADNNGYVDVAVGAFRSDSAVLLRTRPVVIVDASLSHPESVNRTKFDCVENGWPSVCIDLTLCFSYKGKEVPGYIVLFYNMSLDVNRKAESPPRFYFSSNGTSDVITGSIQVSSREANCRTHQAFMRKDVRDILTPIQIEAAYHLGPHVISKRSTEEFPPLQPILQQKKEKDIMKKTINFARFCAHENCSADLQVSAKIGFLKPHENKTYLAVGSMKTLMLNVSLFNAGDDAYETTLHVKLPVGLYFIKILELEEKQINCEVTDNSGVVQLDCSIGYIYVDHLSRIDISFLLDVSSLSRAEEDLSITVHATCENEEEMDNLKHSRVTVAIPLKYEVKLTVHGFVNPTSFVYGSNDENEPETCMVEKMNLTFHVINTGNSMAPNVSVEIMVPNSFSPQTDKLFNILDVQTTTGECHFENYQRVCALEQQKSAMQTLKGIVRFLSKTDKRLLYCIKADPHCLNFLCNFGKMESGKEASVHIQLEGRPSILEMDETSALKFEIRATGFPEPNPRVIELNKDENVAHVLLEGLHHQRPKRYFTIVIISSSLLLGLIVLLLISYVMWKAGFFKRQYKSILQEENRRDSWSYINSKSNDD
T1 sequence (P05556 21-798): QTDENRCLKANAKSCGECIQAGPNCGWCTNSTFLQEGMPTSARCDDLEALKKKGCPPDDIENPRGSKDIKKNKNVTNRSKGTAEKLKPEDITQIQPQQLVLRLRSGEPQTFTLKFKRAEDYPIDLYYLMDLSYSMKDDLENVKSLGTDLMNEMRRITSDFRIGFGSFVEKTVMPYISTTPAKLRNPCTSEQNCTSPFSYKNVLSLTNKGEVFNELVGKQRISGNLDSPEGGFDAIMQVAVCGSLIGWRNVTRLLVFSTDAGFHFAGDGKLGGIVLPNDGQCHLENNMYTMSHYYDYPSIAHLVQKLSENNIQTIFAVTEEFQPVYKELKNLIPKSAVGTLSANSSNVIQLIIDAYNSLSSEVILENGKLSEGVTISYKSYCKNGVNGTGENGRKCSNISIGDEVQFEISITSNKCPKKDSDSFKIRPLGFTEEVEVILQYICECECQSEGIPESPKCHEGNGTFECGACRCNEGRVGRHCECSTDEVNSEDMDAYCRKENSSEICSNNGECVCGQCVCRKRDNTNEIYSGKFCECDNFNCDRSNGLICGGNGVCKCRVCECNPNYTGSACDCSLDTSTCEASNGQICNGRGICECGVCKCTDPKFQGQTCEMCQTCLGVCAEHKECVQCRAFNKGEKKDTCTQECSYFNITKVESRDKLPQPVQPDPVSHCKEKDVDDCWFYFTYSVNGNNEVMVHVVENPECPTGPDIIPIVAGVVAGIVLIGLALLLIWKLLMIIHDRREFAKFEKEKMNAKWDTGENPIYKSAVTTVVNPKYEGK
T2 sequence (P13612 34-1032): as the sequence (P13612 34-1032) above
T2 sequence (P05556 21-798): as the sequence (P05556 21-798) above

For “CS-1 peptide: 25-residue (25-mer) CS-1 portion of fibronectin that binds to the VLA-4 receptor (DELPQLVTLPHPNLHGPEILDVPST) [reference compound]”, in series [1], the “time in which potency is lost” value is given as “less than one”. In series [2], the “clearance from blood circulation” value is on record as “rapidly cleared”.
As usually defined, the IC50 is the midpoint of a concentration-inhibition curve. As for `NC(=O)[C@@H]1CSSC[C@H](NC(=O)Cc2ccccc2)C(=O)N[C@@H](CC(=O)O)C(=O)N[C@@H](Cc2ccccc2)C(=O)N1` [SEQ ID NO:7, N-phenylacetyl-Cys-Asp-Phe-Cys-NH2] (PhAc-CDFC-NH2; disulfide 1-4), the “loss of potency after 24 hours” value in series [1] (24 hours) is recorded as “no loss of potency”. Further, on VLA-4/CS-1, the “potency relative to the best linear peptide (XLDFZ), Jurkat cell binding to CS-1” value is given as “about two-thirds”; the “CS-1 binding inhibition potencies relative to each other” value is listed as ~1.8; the “inhibition potency relative to the Standard 10-mer of SEQ ID NO:6” value is 500-600 and ~563. At VLA-4/CS-1 (Jurkat cells, solid phase-bound CS-1, read-out: absolute IC50 value), the IC50 came out at 300 nM. Also, the “Relative Potency” value at VLA-4/CS-1 (setting [3]) worked out at 954. Further, the “potency relative to the best linear peptide (XLDFZ), Jurkat cell binding to sVCAM-1” value at VLA-4/sVCAM-1 is “about 3 times”.
In the case of `CC(=O)N[C@H]1CSSC[C@@H](C(N)=O)NC(=O)[C@H](Cc2ccccc2)NC(=O)[C@H](CC(=O)O)NC(=O)[C@H](CC(C)C)NC1=O` (Ac-CLDFC-NH2; disulfide 1-5), at VLA-4/CS-1 (setting [3]), the “Relative Potency” value is listed as “.91”.
`CC(C)C[C@@H]1NC(=O)[C@H](Cc2ccccc2)NC(=O)[C@@H](N)CSSC[C@@H](C(N)=O)NC(=O)[C@H]([C@@H](C)O)NC(=O)[C@H](CO)NC(=O)[C@@H]2CCCN2C(=O)[C@H](Cc2ccccc2)NC(=O)[C@H](CC(=O)O)NC1=O` [compound 15] (H-CFLDFPSTC-NH2; disulfide 1-9): the “Relative Potency” value on VLA-4/CS-1 (setting [4]) is given as 81.
Take `CC(C)C[C@H](N)C(=O)N[C@@H](CC(=O)O)C(=O)N[C@H](C(N)=O)C(C)C` [LDV--NH2, reference compound] (H-Leu-Asp-Val-NH2): at VLA-4/CS-1 (setting [4]), the “Relative Potency” value was 0. For the same compound, the “inhibition potency relative to the Standard 10-mer of SEQ ID NO:6” value on VLA-4/CS-1 is on record as “zero”.
Consider `NC(=O)[C@@H]1CSSC[C@H](NC(=O)[C@@H](N)Cc2ccccc2)C(=O)N[C@@H](CC(=O)O)C(=O)N[C@@H](Cc2ccccc2)C(=O)N1` [compound 25] (H-FCDFC-NH2; disulfide 2-5), for which, on VLA-4/CS-1 (setting [4]), the “Relative Potency” value came out at 3.
Consider SFDFS-NH2 [compound 31], for which the “Relative Potency” value at VLA-4/CS-1 (setting [4]) is listed as < 1.
In the case of `NC(=O)[C@@H]1CSSC[C@H](NC(=O)Cc2ccccc2)C(=O)N[C@@H](CC(=O)O)C(=O)N[C@@H](Cc2ccccc2)C(=O)N1` [compound 7] (PhAc-CDFC-NH2; disulfide 1-4), the “Relative Potency” value on VLA-4/CS-1 (setting [4]) turned out to be 954.
Still for that read-out and setting: to `CC(C)C[C@@H]1NC(=O)[C@H](Cc2ccccc2)NC(=O)[C@H](CCC(=O)O)NC(=O)[C@@H](N)CSSC[C@@H](C(N)=O)NC(=O)[C@H](CO)NC(=O)[C@@H]2CCCN2C(=O)[C@H](Cc2ccccc2)NC(=O)[C@H](CC(=O)O)NC1=O` [compound 24] (H-CEFLDFPSC-NH2; disulfide 1-9) belongs 6; to `CC(C)C[C@@H]1NC(=O)[C@H](Cc2ccccc2)NC(=O)[C@@H](N)CSSC[C@@H](C(N)=O)NC(=O)[C@H](C(C)C)NC(=O)[C@H]([C@@H](C)O)NC(=O)[C@H](CO)NC(=O)[C@@H]2CCCN2C(=O)[C@H](Cc2ccccc2)NC(=O)[C@H](CC(=O)O)NC1=O` [compound 21] (H-CFLDFPSTVC-NH2; disulfide 1-10), 19; to ILDFP-NH2 [compound 27], 2.
As to `O=C(O)C[C@@H]1NC(=O)[C@@H](NC(=O)Cc2ccccc2)CSCCNC(=O)[C@H](Cc2ccccc2)NC1=O` [.phi.AcCDF--NHCH2 CH2 --], the results for the “Relative Potency” value on VLA-4/CS-1 (setting [4]) and on VLA-4/CS-1 (setting [3]) were 16 and 16.1, respectively.
As for “.phi.AcJDFc-NH2 (PhAc-[Pen]DF[dC]-NH2; disulfide 1-4)”, the “Relative Potency” value with VLA-4/CS-1 (setting [4]) came out at 4; with VLA-4/CS-1 (setting [3]), 4.07.
As to `CC(=O)N[C@@H](CC(C)C)C(=O)N[C@@H](CC(=O)O)C(=O)N[C@H](C(N)=O)C(C)C` [AcLDV--NH2, reference compound] (Ac-Leu-Asp-Val-NH2), the “Relative Potency” value at VLA-4/CS-1 (setting [4]) is recorded as < 1. The “inhibition potency relative to the Standard 10-mer of SEQ ID NO:6” value on VLA-4/CS-1 was “about 1”.
For the compound `CC(C)C[C@@H]1NC(=O)[C@H](CCC(=O)O)NC(=O)[C@@H]2CCCN2C(=O)[C@@H](N)CSSC[C@@H](C(N)=O)NC(=O)[C@H](CO)NC(=O)[C@@H]2CCCN2C(=O)[C@H](Cc2ccccc2)NC(=O)[C@H](CC(=O)O)NC1=O` [compound 33] (H-CPELDFPSC-NH2; disulfide 1-9), the “Relative Potency” value on VLA-4/CS-1 (setting [4]) was found to be 31.
On to `CC(=O)N[C@H]1CSSC[C@@H](C(=O)N2CCC[C@@H]2C(N)=O)NC(=O)[C@H](CC(=O)O)NC(=O)[C@H](CC(C)C)NC1=O` (Ac-CLDC[dP]-NH2; disulfide 1-4), for which the “Relative Potency” value on VLA-4/CS-1 (setting [3]) came to 0.
On to `CC(C)C[C@H](NC(=O)Cc1ccccc1)C(=O)N[C@@H](CC(=O)O)C(=O)N[C@@H](Cc1ccccc1)C(=O)N1CCC[C@@H]1C(N)=O` [XLDFp, .phi.Ac-LeuAspPhe-D-Pro-NH2, reference compound] (PhAc-LDF[dP]-NH2), for which, on VLA-4/CS-1, the “CS-1 binding inhibition potencies relative to each other” value was ~1 and the “inhibition potency relative to the Standard 10-mer of SEQ ID NO:6” value is reported as ~313.
For `CC(C)C[C@@H]1NC(=O)[C@@H](N)CSSC[C@@H](C(N)=O)NC(=O)[C@H](Cc2ccccc2)NC(=O)[C@H](CC(=O)O)NC1=O` [compound 28] (H-CLDFC-NH2; disulfide 1-5), the “Relative Potency” value on VLA-4/CS-1 (setting [4]) turned out to be 1.
As to `CC(C)C[C@@H]1NC(=O)[C@H](Cc2ccccc2)NC(=O)[C@H](CCC(=O)O)NC(=O)[C@@H]2CCCN2C(=O)[C@@H](N)CSSC[C@@H](C(N)=O)NC(=O)[C@H](Cc2ccccc2)NC(=O)[C@H](CC(=O)O)NC1=O` (H-CPEFLDFC-NH2; disulfide 1-8), on VLA-4/CS-1 (setting [3]), the “Relative Potency” value came out at 56.3.
As for `CC(C)C[C@@H]1NC(=O)[C@H](Cc2ccccc2)NC(=O)[C@H](CCC(=O)O)NC(=O)[C@@H](N)CSSC[C@@H](C(N)=O)NC(=O)[C@H]([C@@H](C)O)NC(=O)[C@H](CO)NC(=O)[C@@H]2CCCN2C(=O)[C@H](Cc2ccccc2)NC(=O)[C@H](CC(=O)O)NC1=O` [compound 22] (H-CEFLDFPSTC-NH2; disulfide 1-10), the “Relative Potency” value at VLA-4/CS-1 (setting [4]) came out at 9.
The same measure, in the same setting: the same measure for `CC(=O)N[C@@H](CC(C)C)C(=O)N[C@@H](CC(=O)O)C(=O)N[C@@H](Cc1ccccc1)C(N)=O` [AcLDF--NH2] (Ac-Leu-Asp-Phe-NH2): < 1.
